From patent US20180110754A1, “CENICRIVIROC FOR THE TREATMENT OF FIBROSIS” (Tobira Therapeutics, Inc., priority 2015, published 2018)

Assay: Study 202: treatment-emergent laboratory abnormalities (DAIDS grades; CPK, ALT, AST, bilirubin)
Assay type: in vivo
Details: for AST, worst Grade 2, n subjects / AST, worst Grade 3, n subjects / AST, worst Grade 4, n subjects / Alanine aminotransferase (ALT) abnormality, any grade, n subjects / Any Grade 3 or Grade 4 laboratory abnormality, n subjects / Aspartate aminotransferase (AST) abnormality, any grade, n subjects / Aspartate aminotransferase (AST) increased (Grade 3 or 4), n subjects / Bilirubin abnormality, any grade, n subjects / Bilirubin, worst Grade 1, n subjects / Bilirubin, worst Grade 2, n subjects / Bilirubin, worst Grade 3, n subjects / Bilirubin, worst Grade 4, n subjects / CPK increased, worst Grade 3, n subjects / CPK increased, worst Grade 4, n subjects / Creatine phosphokinase (CPK) increased (Grade 3 or 4), n subjects / Fibrinogen decreased (Grade 3 or 4), n subjects / Fibrinogen decreased, worst Grade 3, n subjects / Fibrinogen decreased, worst Grade 4, n subjects / Hemoglobin decreased (Grade 3 or 4), n subjects / Hemoglobin decreased, worst Grade 3, n subjects / Hemoglobin decreased, worst Grade 4, n subjects / Neutrophils decreased (Grade 3 or 4), n subjects / Neutrophils decreased, worst Grade 3, n subjects / Neutrophils decreased, worst Grade 4, n subjects / Phosphate decreased (Grade 3 or 4), n subjects / Phosphate decreased, worst Grade 3, n subjects / Phosphate decreased, worst Grade 4, n subjects / Prothrombin time/INR increased, worst Grade 3, n subjects / Prothrombin time/INR increased, worst Grade 4, n subjects / ALT, worst Grade 1, n subjects / ALT, worst Grade 2, n subjects / ALT, worst Grade 3, n subjects / ALT, worst Grade 4, n subjects / AST, worst Grade 1, n subjects: through Week 48
From the text: The number of subjects with graded treatment-emergent laboratory abnormalities in selected liver parameters of interest is shown in Table 34. No Grade 4 ALT or AST elevations were observed. Except for one Grade 3 AST elevation, all ALT and AST elevations were Grade 1 or Grade 2. […] All abnormalities in bilirubin were Grade 1 or Grade 2. […]

[1] = All CVC (N = 115), EFV (N = 28)

CCCCOCCOc1ccc(-c2ccc3c(c2)/C=C(/C(=O)Nc2ccc([S@@+]([O-])Cc4cncn4CCC)cc2)CCCN3CC(C)C)cc1 [CVC, (S)-8-[4-(2-Butoxyethoxy)phenyl]-1-isobutyl-N-(4-{[(1-propyl-1H-imidazol-5-yl)methyl]sulfinyl}phenyl)-1,2,3,4-tetrahydro-1-benzazocine-5-carboxamide]
AST, worst Grade 2, n subjects [1]: 6
AST, worst Grade 3, n subjects [1]: 1
AST, worst Grade 4, n subjects [1]: 0
Alanine aminotransferase (ALT) abnormality, any grade, n subjects [1]: 15
Any Grade 3 or Grade 4 laboratory abnormality, n subjects [1]: 19
Aspartate aminotransferase (AST) abnormality, any grade, n subjects [1]: 21
Aspartate aminotransferase (AST) increased (Grade 3 or 4), n subjects [1]: 1
Bilirubin abnormality, any grade, n subjects [1]: 7
Bilirubin, worst Grade 1, n subjects [1]: 3
Bilirubin, worst Grade 2, n subjects [1]: 4
Bilirubin, worst Grade 3, n subjects [1]: 0
Bilirubin, worst Grade 4, n subjects [1]: 0
CPK increased, worst Grade 3, n subjects [1]: 8
CPK increased, worst Grade 4, n subjects [1]: 4
Creatine phosphokinase (CPK) increased (Grade 3 or 4), n subjects [1]: 12
Fibrinogen decreased (Grade 3 or 4), n subjects [1]: 2
Fibrinogen decreased, worst Grade 3, n subjects [1]: 2
Fibrinogen decreased, worst Grade 4, n subjects [1]: 0
Hemoglobin decreased (Grade 3 or 4), n subjects [1]: 1
Hemoglobin decreased, worst Grade 3, n subjects [1]: 0
Hemoglobin decreased, worst Grade 4, n subjects [1]: 1
Neutrophils decreased (Grade 3 or 4), n subjects [1]: 2
Neutrophils decreased, worst Grade 3, n subjects [1]: 2
Neutrophils decreased, worst Grade 4, n subjects [1]: 0
Phosphate decreased (Grade 3 or 4), n subjects [1]: 4
Phosphate decreased, worst Grade 3, n subjects [1]: 4
Phosphate decreased, worst Grade 4, n subjects [1]: 0
Prothrombin time/INR increased, worst Grade 3, n subjects [1]: 0
Prothrombin time/INR increased, worst Grade 4, n subjects [1]: 1
Subjects with Grade 3 or 4 increases in CPK (CVC 100 mg): 3 subjects
Any graded (Grade 1-4) treatment-emergent laboratory abnormality, n subjects (CVC 100 mg (N = 58)): 51 (88%)
Laboratory abnormality, worst Grade 1, n subjects (CVC 100 mg (N = 58)): 21 (36%)
Laboratory abnormality, worst Grade 2, n subjects (CVC 100 mg (N = 58)): 23 (40%)
ALT, worst Grade 1, n subjects (CVC 100 mg (N = 58)): 4
ALT, worst Grade 2, n subjects (CVC 100 mg (N = 58)): 3
ALT, worst Grade 3, n subjects (CVC 100 mg (N = 58)): 0
ALT, worst Grade 4, n subjects (CVC 100 mg (N = 58)): 0
AST, worst Grade 1, n subjects (CVC 100 mg (N = 58)): 8
AST, worst Grade 2, n subjects (CVC 100 mg (N = 58)): 2
AST, worst Grade 3, n subjects (CVC 100 mg (N = 58)): 1
AST, worst Grade 4, n subjects (CVC 100 mg (N = 58)): 0
Alanine aminotransferase (ALT) abnormality, any grade, n subjects (CVC 100 mg (N = 58)): 7
Any Grade 3 or Grade 4 laboratory abnormality, n subjects (CVC 100 mg (N = 58)): 7
Aspartate aminotransferase (AST) abnormality, any grade, n subjects (CVC 100 mg (N = 58)): 11
Aspartate aminotransferase (AST) increased (Grade 3 or 4), n subjects (CVC 100 mg (N = 58)): 1
Bilirubin abnormality, any grade, n subjects (CVC 100 mg (N = 58)): 4
Bilirubin, worst Grade 1, n subjects (CVC 100 mg (N = 58)): 1
Bilirubin, worst Grade 2, n subjects (CVC 100 mg (N = 58)): 3
Bilirubin, worst Grade 3, n subjects (CVC 100 mg (N = 58)): 0
Bilirubin, worst Grade 4, n subjects (CVC 100 mg (N = 58)): 0
CPK increased, worst Grade 3, n subjects (CVC 100 mg (N = 58)): 2
CPK increased, worst Grade 4, n subjects (CVC 100 mg (N = 58)): 1
Creatine phosphokinase (CPK) increased (Grade 3 or 4), n subjects (CVC 100 mg (N = 58)): 3
Fibrinogen decreased (Grade 3 or 4), n subjects (CVC 100 mg (N = 58)): 0
Fibrinogen decreased, worst Grade 3, n subjects (CVC 100 mg (N = 58)): 0
Fibrinogen decreased, worst Grade 4, n subjects (CVC 100 mg (N = 58)): 0
Hemoglobin decreased (Grade 3 or 4), n subjects (CVC 100 mg (N = 58)): 1
Hemoglobin decreased, worst Grade 3, n subjects (CVC 100 mg (N = 58)): 0
Hemoglobin decreased, worst Grade 4, n subjects (CVC 100 mg (N = 58)): 1
Neutrophils decreased (Grade 3 or 4), n subjects (CVC 100 mg (N = 58)): 2
Neutrophils decreased, worst Grade 3, n subjects (CVC 100 mg (N = 58)): 2
Neutrophils decreased, worst Grade 4, n subjects (CVC 100 mg (N = 58)): 0
Phosphate decreased (Grade 3 or 4), n subjects (CVC 100 mg (N = 58)): 2
Phosphate decreased, worst Grade 3, n subjects (CVC 100 mg (N = 58)): 2
Phosphate decreased, worst Grade 4, n subjects (CVC 100 mg (N = 58)): 0
Prothrombin time/INR increased, worst Grade 3, n subjects (CVC 100 mg (N = 58)): 0
Prothrombin time/INR increased, worst Grade 4, n subjects (CVC 100 mg (N = 58)): 1
Subjects with Grade 3 or 4 increases in CPK (CVC 200 mg): 9 subjects
Any graded (Grade 1-4) treatment-emergent laboratory abnormality, n subjects (CVC 200 mg (N = 57)): 55
Laboratory abnormality, worst Grade 1, n subjects (CVC 200 mg (N = 57)): 16
Laboratory abnormality, worst Grade 2, n subjects (CVC 200 mg (N = 57)): 27
Laboratory abnormality, worst Grade 3 (Any Grade 3 abnormality), n subjects (CVC 200 mg (N = 57)): 9
Laboratory abnormality, worst Grade 4 (Any Grade 4 abnormality), n subjects (CVC 200 mg (N = 57)): 3
ALT, worst Grade 1, n subjects (CVC 200 mg (N = 57)): 6
ALT, worst Grade 2, n subjects (CVC 200 mg (N = 57)): 2
ALT, worst Grade 3, n subjects (CVC 200 mg (N = 57)): 0
ALT, worst Grade 4, n subjects (CVC 200 mg (N = 57)): 0
AST, worst Grade 1, n subjects (CVC 200 mg (N = 57)): 6
AST, worst Grade 2, n subjects (CVC 200 mg (N = 57)): 4
AST, worst Grade 3, n subjects (CVC 200 mg (N = 57)): 0
AST, worst Grade 4, n subjects (CVC 200 mg (N = 57)): 0
Alanine aminotransferase (ALT) abnormality, any grade, n subjects (CVC 200 mg (N = 57)): 8
Any Grade 3 or Grade 4 laboratory abnormality, n subjects (CVC 200 mg (N = 57)): 12
Aspartate aminotransferase (AST) abnormality, any grade, n subjects (CVC 200 mg (N = 57)): 10
Aspartate aminotransferase (AST) increased (Grade 3 or 4), n subjects (CVC 200 mg (N = 57)): 0
Bilirubin abnormality, any grade, n subjects (CVC 200 mg (N = 57)): 3
Bilirubin, worst Grade 1, n subjects (CVC 200 mg (N = 57)): 2
Bilirubin, worst Grade 2, n subjects (CVC 200 mg (N = 57)): 1
Bilirubin, worst Grade 3, n subjects (CVC 200 mg (N = 57)): 0
Bilirubin, worst Grade 4, n subjects (CVC 200 mg (N = 57)): 0
CPK increased, worst Grade 3, n subjects (CVC 200 mg (N = 57)): 6
CPK increased, worst Grade 4, n subjects (CVC 200 mg (N = 57)): 3
Creatine phosphokinase (CPK) increased (Grade 3 or 4), n subjects (CVC 200 mg (N = 57)): 9
Fibrinogen decreased (Grade 3 or 4), n subjects (CVC 200 mg (N = 57)): 2
Fibrinogen decreased, worst Grade 3, n subjects (CVC 200 mg (N = 57)): 2
Fibrinogen decreased, worst Grade 4, n subjects (CVC 200 mg (N = 57)): 0
Hemoglobin decreased (Grade 3 or 4), n subjects (CVC 200 mg (N = 57)): 0
Hemoglobin decreased, worst Grade 3, n subjects (CVC 200 mg (N = 57)): 0
Hemoglobin decreased, worst Grade 4, n subjects (CVC 200 mg (N = 57)): 0
Neutrophils decreased (Grade 3 or 4), n subjects (CVC 200 mg (N = 57)): 0
Neutrophils decreased, worst Grade 3, n subjects (CVC 200 mg (N = 57)): 0
Neutrophils decreased, worst Grade 4, n subjects (CVC 200 mg (N = 57)): 0
Phosphate decreased (Grade 3 or 4), n subjects (CVC 200 mg (N = 57)): 2
Phosphate decreased, worst Grade 3, n subjects (CVC 200 mg (N = 57)): 2
Phosphate decreased, worst Grade 4, n subjects (CVC 200 mg (N = 57)): 0
Prothrombin time/INR increased, worst Grade 3, n subjects (CVC 200 mg (N = 57)): 0
Prothrombin time/INR increased, worst Grade 4, n subjects (CVC 200 mg (N = 57)): 0
